Source: patent publication US20140235856A1, “FIBROBLASTS CELLULAR MODEL FOR ASSESSING EFFICACY OF CANCER TREATMENTS BY SHH/PTCH PATHWAY ANTAGONISTS” (CNRS, priority 2011, published 2014)

Tested on: SHH/PTCH pathway (GLI1 mRNA) in NBCCS 6 E6/E7 fibroblasts
Assay: Comparative Q-PCR analysis of GLI1 mRNA accumulation after treatment of fibroblast cell lines with purmorphamine
Assay type: cell-based, human
Settings: NBCCS 6 E6/E7 fibroblasts compared with CTRL E6/E7 fibroblasts, same experimental conditions; 0.1% DMSO; Q-PCR (FIG. 4)
Procedure: Human primary fibroblasts (named CTRL or NBCCS) were isolated from a healthy non photo-exposed skin biopsy of either a control patient or a patient with caracteristic NBCCS after informed consent (Otto et al., 1999; Valin et al., 2009)
The CTRL and NBCCS6 cell lines were then immortalized by retroviral transduction with pLE6/E7SN resulting in CTRL and NBCCS-E6-E7 (FIG. 1) (Halbert et al., 1991, 1992). Cells were grown at 37° C. in a humified atmosphere containing 5% CO2, DMEM medium, 50 U/ml penicillin, 50 μg/ml streptomycin, 0.125 μg/ml amphotericin B, 2 mM L-Glutamine, 1 mM Sodium pyruvate, 1× non essential amino acids.
Total RNA was extracted with RNeasy® Mini kit according to manufacturer's instructions (Qiagen, Hilden, Germany). Reverse transcription was performed on 1 μg total RNA with Superscript II Reverse Transcriptase (Roche Applied Science, Basel, Switzerland) by using random primers. Q-PCR was carried out using the 7900 HT Fast Real-Time PCR System (Applied Biosystems, Foster City, Calif., USA).
To evaluate small Molecules Modulators of the SHH/PTCH pathway, the Purmorphamine (SMO agonist) was used. Purmorphamine (SMO agonist) was diluted in DMSO at stock concentrations of 50 mM and 10 mM, respectively. To avoid side effects and toxicity, the final concentration of DMSO was fixed to 0.1% DMSO.

## c1ccc2c(Oc3nc(Nc4ccc(N5CCOCC5)cc4)c4ncn(C5CCCCC5)c4n3)cccc2c1 [Purmorphamine]
  GLI1 mRNA accumulation response, NBCCS 6 E6/E7 versus CTRL cells: 7 × times
